# Test results from patent US20250074905A1, “AKT3 MODULATORS” (Georgiamune Inc., priority 2021, published 2025).
# System: Foxp3 induction in CD4 conventional T cells (iTreg induction)
# Experiment: Foxp3 induction assay
# Type: cell-based, C57/B16 mice
# Settings: T-cell, 72 h; mouse CD4 Tconvs, anti-CD3/anti-CD28, IL2, TGF-β, 3 days of culture, flow cytometry; read-out: IC50 value as measured by the Foxp3 induction assay
# Protocol: Sorted or enriched (Miltenyi magnetic separation) CD4 conventional T cells (Tconvs −CD4+/CD25) from C57/B16 mice were used for the induction of iTregs. A 10 µg/mL plate-bound anti-CD3 antibody (50 ul per well for 96-well plate), […] of soluble anti-CD28 antibody, 100 IU/mL of IL2 and 5 ng/mL of TGF-β in absence or presence of different concentrations of drug (usually titrating from 0.01 uM to 10 uM) were used. As negative control for induction, samples without TGF-β were used.
# After 3 days of culture in presence of stimulation, TGF-β and drug, cells were stained with fixable live/dead cell stain (Life Technologies, NY) for gating and exclusion of toxic doses. The mouse Foxp3 buffer kit was used to fix and permeabilize cells according to the manufacturer's instructions (BD Bioscience, San Jose, CA). The anti-CD4 antibody and anti-Foxp3 antibody were used to stain the cells. After staining, cells were acquired using flow cytometer.
smiles,measurement,value
"O=C(Nc1ccc2c(c1)Nc1ccncc1CC2)c1ccc(Nc2ccncc2)cc1 [Compound 1, N-(10,11-dihydro-5H-benzo[b]pyrido[3,4-f]azepin-7-yl)-4-(pyridin-4-ylamino)benzamide]",IC50,< 1 µM
